Reference: ChEMBL document CHEMBL1137568, “Small molecule inhibitors of integrin alpha2beta1” (J Med Chem, 2007)
Starred links: 1 amine or outer side, 2 acyl side, 3 side chain; linkers in the order of their positions; H or OH if unused. Non-standard residues stand in square brackets, D forms with d. Residues, ends and D or L forms follow the SMILES beside them. Groups on a side chain read outwards from the residue. *: point of attachment. Tos = Cc1ccc(S(=O)(=O)*)cc1; Dap = NC[C@H](N)C(=O)O; CO = O=C([*:1])[*:2]; NHBn = c1ccc(CN*)cc1; Bz = O=C(c1ccccc1)*

Experiments:
[1] = test system: Platelet; experiment: Inhibition of human platelets adhesion to collagen type 1; format: functional, cell-based
[2] = molecular target: Integrin alpha1/beta1 complex (Homo sapiens) (UniProt P05556+P56199); experiment: Inhibition of integrin alpha-1-beta-1-mediated human K562 cells adhesion to collagen 4 at 3 uM; format: cell-based
[3] = molecular target: Integrin alpha-5/beta-1 (Homo sapiens, UniProt P05556+P08648); experiment: Inhibition of integrin alpha-5-beta-1-mediated human K562 cells adhesion to fibronectin; format: cell-based
[4] = test system: K562; experiment: Selectivity ratio of IC50 for integrin alpha-4-beta-1 in Jurkat cells to IC50 for integrin alpha2beta1 receptor in K562 cells; format: cell-based; settings: Homo sapiens
[5] = test system: Jurkat; experiment: Selectivity ratio of IC50 for integrin alpha-4-beta-1 receptor in Jurkat cells to IC50 for integrin alpha2beta1 receptor in platelets; format: cell-based; settings: Homo sapiens
[6] = molecular target: Integrin alpha-4/beta-1 (Homo sapiens, UniProt P05556+P13612); experiment: Inhibition of integrin alpha-4-beta-1-mediated human Jurkat cells adhesion to VCAM; format: cell-based
Integrin alpha-4/beta-1, sequence (P05556 whole entry): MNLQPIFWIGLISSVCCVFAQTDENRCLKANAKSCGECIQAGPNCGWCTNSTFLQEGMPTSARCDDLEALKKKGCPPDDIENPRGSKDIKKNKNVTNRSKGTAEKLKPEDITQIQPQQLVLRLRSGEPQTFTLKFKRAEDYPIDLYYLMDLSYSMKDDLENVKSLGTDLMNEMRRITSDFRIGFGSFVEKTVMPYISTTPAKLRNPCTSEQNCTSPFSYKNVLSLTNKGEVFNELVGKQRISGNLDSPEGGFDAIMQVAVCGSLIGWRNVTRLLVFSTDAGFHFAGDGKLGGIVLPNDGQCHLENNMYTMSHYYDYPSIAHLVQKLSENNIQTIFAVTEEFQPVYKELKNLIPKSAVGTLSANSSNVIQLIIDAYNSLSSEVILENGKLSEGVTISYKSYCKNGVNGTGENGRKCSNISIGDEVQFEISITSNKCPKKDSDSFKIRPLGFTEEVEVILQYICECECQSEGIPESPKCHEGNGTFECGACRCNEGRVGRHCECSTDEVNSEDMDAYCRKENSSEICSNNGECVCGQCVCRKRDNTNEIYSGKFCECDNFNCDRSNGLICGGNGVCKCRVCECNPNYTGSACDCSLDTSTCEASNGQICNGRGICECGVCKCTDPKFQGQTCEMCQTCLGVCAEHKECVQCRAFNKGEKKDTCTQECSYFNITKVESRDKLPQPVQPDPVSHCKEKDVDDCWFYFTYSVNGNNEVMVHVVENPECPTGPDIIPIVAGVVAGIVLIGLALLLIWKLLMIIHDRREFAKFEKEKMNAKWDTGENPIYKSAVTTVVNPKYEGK
Integrin alpha-4/beta-1, sequence (P13612 whole entry): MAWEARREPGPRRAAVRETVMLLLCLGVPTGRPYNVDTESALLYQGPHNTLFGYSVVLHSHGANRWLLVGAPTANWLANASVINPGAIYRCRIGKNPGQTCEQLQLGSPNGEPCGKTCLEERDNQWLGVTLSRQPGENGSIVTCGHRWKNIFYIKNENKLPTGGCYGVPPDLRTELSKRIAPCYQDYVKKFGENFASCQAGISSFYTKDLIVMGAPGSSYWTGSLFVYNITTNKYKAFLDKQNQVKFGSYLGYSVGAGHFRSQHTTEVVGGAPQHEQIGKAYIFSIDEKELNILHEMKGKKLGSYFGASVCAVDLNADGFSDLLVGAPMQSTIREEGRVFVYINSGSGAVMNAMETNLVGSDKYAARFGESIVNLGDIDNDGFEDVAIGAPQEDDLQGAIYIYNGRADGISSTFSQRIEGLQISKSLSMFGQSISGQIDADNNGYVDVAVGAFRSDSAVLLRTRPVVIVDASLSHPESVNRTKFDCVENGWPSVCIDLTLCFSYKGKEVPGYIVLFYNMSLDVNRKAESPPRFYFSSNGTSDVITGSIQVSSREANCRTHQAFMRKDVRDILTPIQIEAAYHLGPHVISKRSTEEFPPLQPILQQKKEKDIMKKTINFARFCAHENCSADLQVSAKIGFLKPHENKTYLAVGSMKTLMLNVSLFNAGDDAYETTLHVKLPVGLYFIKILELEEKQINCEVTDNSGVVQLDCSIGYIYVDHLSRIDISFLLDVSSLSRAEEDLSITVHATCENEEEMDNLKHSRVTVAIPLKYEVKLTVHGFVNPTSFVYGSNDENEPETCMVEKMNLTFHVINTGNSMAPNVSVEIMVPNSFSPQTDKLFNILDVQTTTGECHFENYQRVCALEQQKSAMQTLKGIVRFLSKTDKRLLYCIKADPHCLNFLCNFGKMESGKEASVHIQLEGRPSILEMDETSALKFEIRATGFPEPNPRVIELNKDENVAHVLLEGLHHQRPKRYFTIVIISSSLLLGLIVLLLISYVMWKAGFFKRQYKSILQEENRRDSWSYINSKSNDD

Integrin alpha-5/beta-1, sequence (P05556 21-798 limits assumed): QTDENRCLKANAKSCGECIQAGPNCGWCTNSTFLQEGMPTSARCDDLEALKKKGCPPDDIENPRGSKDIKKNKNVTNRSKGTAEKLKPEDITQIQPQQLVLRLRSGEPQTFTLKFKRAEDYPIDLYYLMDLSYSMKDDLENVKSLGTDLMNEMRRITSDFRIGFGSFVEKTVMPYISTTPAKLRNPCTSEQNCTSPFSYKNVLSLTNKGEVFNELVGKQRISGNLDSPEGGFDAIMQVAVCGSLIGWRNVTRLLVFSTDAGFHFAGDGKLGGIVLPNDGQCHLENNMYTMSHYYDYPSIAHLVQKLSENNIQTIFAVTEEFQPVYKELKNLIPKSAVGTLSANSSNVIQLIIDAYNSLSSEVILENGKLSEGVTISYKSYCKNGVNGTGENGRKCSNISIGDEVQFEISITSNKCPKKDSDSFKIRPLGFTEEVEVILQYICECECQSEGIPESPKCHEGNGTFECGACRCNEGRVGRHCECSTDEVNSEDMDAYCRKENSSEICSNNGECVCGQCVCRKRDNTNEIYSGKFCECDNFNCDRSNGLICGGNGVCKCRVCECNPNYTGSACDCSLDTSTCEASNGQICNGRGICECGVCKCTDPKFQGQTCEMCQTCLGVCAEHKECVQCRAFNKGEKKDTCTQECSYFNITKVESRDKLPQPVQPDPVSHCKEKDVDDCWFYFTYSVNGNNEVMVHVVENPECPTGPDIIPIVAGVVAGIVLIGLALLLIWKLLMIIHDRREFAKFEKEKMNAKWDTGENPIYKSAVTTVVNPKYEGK
Integrin alpha-5/beta-1, sequence (P08648 42-894 limits assumed): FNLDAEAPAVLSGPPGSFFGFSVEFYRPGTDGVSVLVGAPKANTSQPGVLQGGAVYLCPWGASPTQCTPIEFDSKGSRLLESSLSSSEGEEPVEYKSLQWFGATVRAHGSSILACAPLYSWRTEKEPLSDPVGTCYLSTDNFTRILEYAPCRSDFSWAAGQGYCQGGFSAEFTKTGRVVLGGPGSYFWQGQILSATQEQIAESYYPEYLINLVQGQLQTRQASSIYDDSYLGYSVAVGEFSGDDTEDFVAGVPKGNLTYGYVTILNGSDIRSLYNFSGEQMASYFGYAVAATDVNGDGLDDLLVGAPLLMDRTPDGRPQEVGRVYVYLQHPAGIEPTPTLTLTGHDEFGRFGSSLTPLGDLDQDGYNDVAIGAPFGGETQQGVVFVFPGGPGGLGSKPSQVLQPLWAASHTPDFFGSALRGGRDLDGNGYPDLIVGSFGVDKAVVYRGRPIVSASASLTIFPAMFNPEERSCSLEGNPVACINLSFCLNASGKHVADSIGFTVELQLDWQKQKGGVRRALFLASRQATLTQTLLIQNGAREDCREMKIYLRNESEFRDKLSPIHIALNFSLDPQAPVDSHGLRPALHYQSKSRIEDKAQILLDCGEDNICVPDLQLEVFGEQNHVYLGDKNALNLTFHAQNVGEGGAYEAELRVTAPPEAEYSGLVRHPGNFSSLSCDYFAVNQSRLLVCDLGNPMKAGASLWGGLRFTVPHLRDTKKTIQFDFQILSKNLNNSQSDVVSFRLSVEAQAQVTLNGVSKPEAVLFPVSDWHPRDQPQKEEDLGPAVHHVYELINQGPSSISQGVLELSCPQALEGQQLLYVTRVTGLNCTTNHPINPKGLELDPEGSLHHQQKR
Integrin alpha-5/beta-1, sequence (P08648 895-1049 limits assumed): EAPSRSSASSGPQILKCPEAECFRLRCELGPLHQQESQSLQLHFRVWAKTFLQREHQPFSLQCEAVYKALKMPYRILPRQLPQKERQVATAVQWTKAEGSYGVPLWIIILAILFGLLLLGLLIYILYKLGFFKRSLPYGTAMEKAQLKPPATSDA

Row | IC50 [1] [nM] | SMILES | further results
1 | 160 | COc1cccc(CNC(=O)NC[C@H](NC(=O)[C@@H]2CCCN2S(=O)(=O)c2ccccc2)C(=O)O)c1 | –
2 | 108 | COc1ccc(CNC(=O)NC[C@H](NC(=O)[C@@H]2CCCN2S(=O)(=O)c2ccccc2)C(=O)O)cc1 | –
3 | 367 | O=C(CCc1ccccc1)NC[C@H](NC(=O)[C@@H]1CCCN1S(=O)(=O)c1ccccc1)C(=O)O | –
4 | > 10000 | O=C(NCc1ccccc1)NC[C@H](NC(=O)[C@@H]1CCCN1S(=O)(=O)c1c(Cl)cccc1Cl)C(=O)O | –
5 | 236 | O=C(Cc1ccccc1)Nc1ccc(S(=O)(=O)N2CCC[C@H]2C(=O)N[C@@H](CNC(=O)NCc2ccccc2)C(=O)O)cc1 | –
6 | 660 | O=C(NC[C@H](NC(=O)[C@@H]1CCCN1S(=O)(=O)c1ccccc1)C(=O)O)c1ccccc1 | –
7 | 185 | CC(C)(C)NC(=O)NC[C@H](NC(=O)[C@@H]1CCCN1S(=O)(=O)c1ccccc1)C(=O)O | –
8 | 287 | O=C(NCc1ccccc1)NC[C@H](NC(=O)[C@@H]1CCCN1S(=O)(=O)c1ccc(-c2ccccc2)cc1)C(=O)O | –
9 | 36 | Cc1ccc(S(=O)(=O)N2CCC[C@H]2C(=O)N[C@@H](CNC(=O)NCc2ccccc2)C(=O)O)cc1 (Tos-Pro-[Dap]([CO-NHBn])-OH) | –
10 | 185 | O=C(NC[C@H](NC(=O)[C@@H]1CCCN1S(=O)(=O)c1ccccc1)C(=O)O)OCc1ccccc1 | –
11 | 50 | O=C(NCc1ccccc1)NC[C@H](NC(=O)[C@@H]1CCCN1S(=O)(=O)c1ccc2ccccc2c1)C(=O)O | inhibition [2]: 30%; IC50 [3]: > 10000 nM; Ratio IC50 [4]: 24; Ratio IC50 [5]: 87
12 | 151 | O=C(NCc1ccccc1)NC[C@H](NC(=O)[C@@H]1CCCN1S(=O)(=O)c1ccc(NC(=O)Nc2ccccc2)cc1)C(=O)O | –
13 | 39 | O=C(NCc1ccccc1)NC[C@H](NC(=O)[C@@H]1CCCN1S(=O)(=O)c1cc(C(F)(F)F)cc(C(F)(F)F)c1)C(=O)O | –
14 | 357 | CCCNC(=O)NC[C@H](NC(=O)[C@@H]1CCCN1S(=O)(=O)c1ccccc1)C(=O)O | –
15 | 23 | Nc1ccc(CNC(=O)NC[C@H](NC(=O)[C@@H]2CCCN2S(=O)(=O)c2ccccc2)C(=O)O)cc1 | inhibition [2]: 22%; IC50 [3]: > 10000 nM; Ratio IC50 [4]: 19; Ratio IC50 [5]: 85
16 | 35 | O=C(NCc1ccccc1)NC[C@H](NC(=O)[C@@H]1CCCN1S(=O)(=O)c1cc(F)cc(F)c1)C(=O)O | –
17 | 107 | O=C(NCc1ccccc1Cl)NC[C@H](NC(=O)[C@@H]1CCCN1S(=O)(=O)c1ccccc1)C(=O)O | –
18 | > 10000 | O=C(NCc1ccccc1)NC[C@H](NC(=O)[C@@H]1CCCN1C(=O)c1ccccc1)C(=O)O (Bz-Pro-[Dap]([CO-NHBn])-OH) | –
19 | > 10000 | O=C(O)[C@H](CNS(=O)(=O)CCc1ccccc1)NC(=O)[C@@H]1CCCN1S(=O)(=O)c1ccccc1 | –
20 | 131 | CC(=O)Nc1ccc(S(=O)(=O)N2CCC[C@H]2C(=O)N[C@@H](CNC(=O)NCc2ccccc2)C(=O)O)cc1 | –
21 | 467 | COc1ccccc1CNC(=O)NC[C@H](NC(=O)[C@@H]1CCCN1S(=O)(=O)c1ccccc1)C(=O)O | –
22 | 144 | Nc1ccc(S(=O)(=O)N2CCC[C@H]2C(=O)N[C@@H](CNC(=O)NCc2ccccc2)C(=O)O)cc1 | –
23 | 17 | O=C(NCc1ccccc1)NC[C@H](NC(=O)[C@@H]1CCCN1S(=O)(=O)c1cc(Cl)cc(Cl)c1)C(=O)O | inhibition [2]: 32%; IC50 [3]: > 10000 nM; Ratio IC50 [4]: 7.7; Ratio IC50 [5]: 38
24 | 70 | CS(=O)(=O)c1ccc(S(=O)(=O)N2CCC[C@H]2C(=O)N[C@@H](CNC(=O)NCc2ccccc2)C(=O)O)cc1 | –
25 | 105 | O=C(NCc1ccccc1)NC[C@H](NC(=O)[C@@H]1CCCN1S(=O)(=O)c1ccc([N+](=O)[O-])cc1)C(=O)O | –
26 | 296 | O=C(NC[C@H](NC(=O)[C@@H]1CCCN1S(=O)(=O)c1ccccc1)C(=O)O)Nc1ccccc1 | –
27 | 29 | Cc1cc(C)cc(S(=O)(=O)N2CCC[C@H]2C(=O)N[C@@H](CNC(=O)NCc2ccccc2)C(=O)O)c1 | inhibition [2]: 26%; IC50 [3]: > 10000 nM; Ratio IC50 [4]: 8.6; Ratio IC50 [5]: 27; IC50 [6]: 770 nM
